Experimental data as given in patent US10385019B2, “Inhibitors of EGFR and methods of use thereof” (Dana-Farber Cancer Institute, Inc., priority 2015, dated 2019).
pIC50: −log10 of the molar value. Read-outs that look alike come from different tables or passages of the source.

How the values were obtained:
Assay in all cases: Ba/F3 cell proliferation model
Assay type in all cases: cell-based, murine
[1] = target: EGFR T790M/L858R Ba/F3 cell line (Homo sapiens, UniProt P00533, T790M/L858R, cells depend on it); conditions: for Activity (% inhibition): combined with cetuximab (% cetuximab, 1.0 μM drug concentration with 1.0 μg/mL cetuximab)
In short: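 Murine Ba/F3 cells made IL-3-independent by retroviral EGFR L858R/T790M, selected in puromycin (2 μg/ml) and kept in RPMI 1640 with 10% FBS. Cells were exposed to serially diluted compound for 72 h, with growth read by MTS assay in six wells per point and ≥3 repeats. Sigmoidal dose-response non-linear regression gave the values.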

[2] = system: EGFR Parental Ba/F3 cell line; conditions: Mus musculus, BaF3; compound alone
Excerpt: (§1) The selectivity between wild-type EGFR and EGFR containing one or more mutations as described herein can also be measured using cellular proliferation assays where cell proliferation is dependent on kinase activity. For example, murine Ba/F3 cells transfected with a suitable version of wild-type EGFR (such as VIII; containing a WT EGFR kinase domain), or Ba/F3 cells transfected with L858R/T790M, Del/T790M/L718Q, L858R/T790M/L718Q, L858R/T790M/C797S, Del/T790M/C797S, L858R/T790M/I941R, or Exon 19 deletion/T790M can be used.
(§2) Cell lines are plated in media. The compounds of the present disclosure are then serially diluted and transferred to the cells. Cell viability is measured via a luminescent readout. Data is analyzed by non-linear regression curve-fitting.
(§3) The EGFR mutant L858R, Del E746_A750, L858R/T790M, DelE746_A750/T790M, L858R/T790M/C797S and Del/T790M/C797S Ba/F3 cells have been previously described (Zhou, W., Ercan, D., Chen, L., Yun, C. H., Li, D., Capelletti, M., Cortot, A. B., Chirieac, L., Iacob, R. E., Padera, R., et al. “Novel mutant-selective EGFR kinase inhibitors against EGFR T790M,” Nature 462, (2009), 1070-1074). All cell lines were maintained in RPMI 1640 (Cellgro; Mediatech Inc., Herndon, Calif.) supplemented with 10% FBS 100 units/mL penicillin, 100 units/mL streptomycin, and 2 mM glutamine. L858R cells were maintained in ACL-4 media (Invitrogen, Carlsbad, Calif.) supplemented with 5% FBS, 100 units/mL penicillin, 100 units/mL streptomycin, and 2 mM glutamine. The EGFR I941R mutation was introduced via site directed mutagenesis using the Quick Change Site-Directed Mutagenesis kit (Stratagene; La Jolla, Calif.) according to the manufacturer's instructions. All constructs were confirmed by DNA sequencing. The constructs were shuttled into the retroviral vector JP 1540 using the BD Creator™ System (BD Biosciences). Ba/F3 cells were infected with retrovirus and according to standard protocols, as described previously (Zhou et al, Nature 2009). Stable clones were obtained by selection in puromycin (2 μg/ml).
(§4) Growth and inhibition of growth was assessed by MTS assay and was performed according to previously established methods (Zhou et al., Nature 2009). The MTS assay is a colorimetric method for determining the number of viable cells that is based on the bioreduction of MTS by cells to a formazan product that is soluble in cell culture medium and can be detected spectrophotometrically. Ba/F3 cells of different EGFR genotypes were exposed to treatment for 72 hours and the number of cells used per experiment determined empirically and has been previously established (Zhou et al., Nature 2009). All experimental points were set up in six wells and all experiments were repeated at least three times. […] The curves were fitted using a non-linear regression model with a sigmoidal dose response.

[3] = target: Del/T790M Ba/F3 cell line (Homo sapiens, UniProt P00533, DEL746-750/T790M, cells depend on it)
Excerpt: as §1, §2, §3, §4

[4] = compound alone, read-out: L858R/T790M IC50
[5] = read-out: L858R/T790M Cetuximab IC50, in combination with Cetuximab
[6] = compound alone, read-out: Del/T790M IC50
[7] = read-out: Del/T790M Cetuximab IC50, in combination with Cetuximab

Sequence of Del/T790M Ba/F3 cell line (P00533 with tags, fused parts or gaps DEL746-750/T790M): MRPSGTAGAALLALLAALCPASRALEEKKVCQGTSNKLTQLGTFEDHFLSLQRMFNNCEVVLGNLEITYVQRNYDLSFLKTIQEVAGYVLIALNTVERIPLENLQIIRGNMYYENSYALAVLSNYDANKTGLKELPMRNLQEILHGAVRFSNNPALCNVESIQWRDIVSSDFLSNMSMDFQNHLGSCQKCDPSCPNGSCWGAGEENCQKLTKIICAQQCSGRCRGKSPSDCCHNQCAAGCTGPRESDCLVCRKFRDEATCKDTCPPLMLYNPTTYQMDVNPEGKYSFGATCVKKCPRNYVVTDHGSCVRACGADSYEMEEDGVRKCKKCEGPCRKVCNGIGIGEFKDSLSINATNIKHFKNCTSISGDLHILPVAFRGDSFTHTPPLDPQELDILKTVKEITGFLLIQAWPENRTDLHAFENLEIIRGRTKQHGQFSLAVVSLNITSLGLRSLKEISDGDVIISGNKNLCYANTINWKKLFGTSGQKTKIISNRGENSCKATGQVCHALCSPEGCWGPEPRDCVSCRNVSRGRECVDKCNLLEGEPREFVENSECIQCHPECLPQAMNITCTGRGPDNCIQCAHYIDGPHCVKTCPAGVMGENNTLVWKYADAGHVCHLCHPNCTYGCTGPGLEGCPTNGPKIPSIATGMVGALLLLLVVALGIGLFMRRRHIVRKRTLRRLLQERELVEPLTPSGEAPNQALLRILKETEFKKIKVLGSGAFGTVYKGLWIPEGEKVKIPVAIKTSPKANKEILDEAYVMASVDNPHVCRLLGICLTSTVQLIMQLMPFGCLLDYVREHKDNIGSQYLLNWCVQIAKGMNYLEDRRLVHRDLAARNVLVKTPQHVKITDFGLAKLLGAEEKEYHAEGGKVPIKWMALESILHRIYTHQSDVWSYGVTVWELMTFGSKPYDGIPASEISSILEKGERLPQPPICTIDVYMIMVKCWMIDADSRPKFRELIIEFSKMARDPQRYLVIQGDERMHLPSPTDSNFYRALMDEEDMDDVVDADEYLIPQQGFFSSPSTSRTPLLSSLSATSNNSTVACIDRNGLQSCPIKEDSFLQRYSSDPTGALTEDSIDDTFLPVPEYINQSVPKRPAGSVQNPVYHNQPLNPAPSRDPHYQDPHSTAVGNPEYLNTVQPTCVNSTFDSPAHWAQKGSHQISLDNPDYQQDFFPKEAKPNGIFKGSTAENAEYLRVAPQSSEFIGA
Sequence of EGFR T790M/L858R Ba/F3 cell line (P00533 whole entry T790M/L858R): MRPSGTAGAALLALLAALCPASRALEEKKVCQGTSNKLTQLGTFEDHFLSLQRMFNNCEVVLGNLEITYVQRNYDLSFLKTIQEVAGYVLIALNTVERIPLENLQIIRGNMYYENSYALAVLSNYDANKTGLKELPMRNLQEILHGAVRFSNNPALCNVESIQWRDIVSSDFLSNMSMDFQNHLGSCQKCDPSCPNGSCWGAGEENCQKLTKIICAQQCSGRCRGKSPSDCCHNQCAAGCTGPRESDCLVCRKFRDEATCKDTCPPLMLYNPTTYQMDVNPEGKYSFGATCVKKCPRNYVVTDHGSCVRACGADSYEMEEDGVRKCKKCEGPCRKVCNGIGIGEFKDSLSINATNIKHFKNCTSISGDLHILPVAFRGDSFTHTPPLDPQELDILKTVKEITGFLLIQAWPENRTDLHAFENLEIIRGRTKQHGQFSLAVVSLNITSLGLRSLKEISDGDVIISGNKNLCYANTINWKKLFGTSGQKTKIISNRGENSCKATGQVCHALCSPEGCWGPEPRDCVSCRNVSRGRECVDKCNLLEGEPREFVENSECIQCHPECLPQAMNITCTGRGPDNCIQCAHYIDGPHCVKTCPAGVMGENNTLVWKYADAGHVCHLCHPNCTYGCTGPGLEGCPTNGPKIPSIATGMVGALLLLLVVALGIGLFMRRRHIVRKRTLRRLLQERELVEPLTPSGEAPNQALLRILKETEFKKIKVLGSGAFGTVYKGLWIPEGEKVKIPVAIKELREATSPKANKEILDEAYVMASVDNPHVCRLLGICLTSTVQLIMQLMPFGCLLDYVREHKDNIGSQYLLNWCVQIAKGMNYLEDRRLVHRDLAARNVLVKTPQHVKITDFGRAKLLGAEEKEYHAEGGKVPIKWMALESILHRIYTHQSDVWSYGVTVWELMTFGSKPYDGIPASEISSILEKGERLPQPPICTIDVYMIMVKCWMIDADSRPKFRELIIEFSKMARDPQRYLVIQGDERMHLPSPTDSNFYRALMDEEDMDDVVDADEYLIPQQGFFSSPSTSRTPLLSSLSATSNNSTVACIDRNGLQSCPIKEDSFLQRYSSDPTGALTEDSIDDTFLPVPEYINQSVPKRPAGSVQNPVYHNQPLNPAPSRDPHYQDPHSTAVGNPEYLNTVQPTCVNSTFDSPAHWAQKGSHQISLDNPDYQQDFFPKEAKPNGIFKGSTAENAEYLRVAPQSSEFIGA

Compound | Activity (% inhibition) [1] | GI50 [1, 4] | GI50 [1, 5] | pIC50 [2] | GI50 [3, 6] | GI50 [3, 7]
O=C(Nc1nccs1)[C@@H](c1ccccc1)N1Cc2ccc(-c3cnc4ccccc4c3)cc2C1=O [Compound I-70, (R)-2-(1-oxo-6-(quinolin-3-yl)isoindolin-2-yl)-2-phenyl-N-(thiazol-2-yl)acetamide] | D (a % inhibition of between about 0% to about 25%) | > 10 µM | < 0.5 µM | < 5.00 | > 10 µM | > 10 µM
CN1CCN(c2ccc(-c3ccc4c(c3)C(=O)N([C@@H](C(=O)Nc3nccs3)c3ccccc3)C4)cc2)CC1 [Compound I-69, (R)-2-(6-(4-(4-methylpiperazin-1-yl)phenyl)-1-oxoisoindolin-2-yl)-2-phenyl-N-(thiazol-2-yl) acetamide] | D (a % inhibition of between about 0% to about 25%) | 1 to 10 µM | < 0.5 µM | 5.00 to 6.00 | 1 to 10 µM | 1 to 10 µM
O=C(Nc1nccs1)[C@@H](c1ccccc1)N1Cc2ccc(-c3ccccc3F)cc2C1=O [Compound I-75, (R)-2-(6-(2-fluorophenyl)-1-oxoisoindolin-2-yl)-2-phenyl-N-(thiazol-2-yl)acetamide] | D (a % inhibition of between about 0% to about 25%) | > 10 µM | < 0.5 µM | < 5.00 | 1 to 10 µM | 1 to 10 µM
O=C(Nc1nccs1)C(c1cccc(F)c1)N1Cc2ccc(-c3ccc4[nH]ccc4c3)cc2C1=O (stereo not drawn) [Compound I-122, 2-(6-(1H-indol-5-yl)-1-oxoisoindolin-2-yl)-2-(3-fluorophenyl)-N-(thiazol-2-yl)acetamide] | D (a % inhibition of between about 0% to about 25%) | 1 to 10 µM | < 0.5 µM | 5.00 to 6.00 | > 10 µM | > 10 µM
O=C(Nc1nccs1)[C@H](c1ccccc1)N1Cc2ccc(-c3ccc(N4CCNCC4)cc3)cc2C1=O [Compound I-115, (S)-2-(1-oxo-6-(4-(piperazin-1-yl)phenyl)isoindolin-2-yl)-2-phenyl-N-(thiazol-2-yl)acetamide] | D (a % inhibition of between about 0% to about 25%) | 1 to 10 µM | < 0.5 µM | 5.00 to 6.00 | 1 to 10 µM | 1 to 10 µM
O=C(Nc1nccs1)[C@H](c1ccccc1)N1Cc2ccc(-c3ccccc3F)cc2C1=O [Compound I-113, (S)-2-(6-(2-fluorophenyl)-1-oxoisoindolin-2-yl)-2-phenyl-N-(thiazol-2-yl)acetamide] | C (a % inhibition of between about 25% to about 50%) | > 10 µM | < 0.5 µM | < 5.00 | > 10 µM | > 10 µM
COc1cc(OC)cc(-c2ccc3c(c2)C(=O)N([C@@H](C(=O)Nc2nccs2)c2ccccc2)C3)c1 [Compound I-79, (R)-2-(6-(3,5-dimethoxyphenyl)-1-oxoisoindolin-2-yl)-2-phenyl-N-(thiazol-2-yl)acetamide] | D (a % inhibition of between about 0% to about 25%) | > 10 µM | < 0.5 µM | < 5.00 | > 10 µM | > 10 µM
CC(C)(C)OC(=O)N1CCN(c2ccc(-c3ccc4c(c3)C(=O)N([C@@H](C(=O)Nc3nccs3)c3ccccc3)C4)c(F)c2)CC1 [Compound I-119, tert-butyl (R)-4-(3-fluoro-4-(3-oxo-2-(2-oxo-1-phenyl-2-(thiazol-2-ylamino)ethyl)isoindolin-5-yl)phenyl)piperazine-1-carboxylate] | D (a % inhibition of between about 0% to about 25%) | > 10 µM | < 0.5 µM | < 5.00 | > 10 µM | > 10 µM
O=C(Nc1nccs1)[C@@H](c1ccccc1)N1Cc2ccc(-c3ccc4[nH]ccc4c3)cc2C1=O [Compound I-66, (R)-2-(6-(1H-indol-5-yl)-1-oxoisoindolin-2-yl)-2-phenyl-N-(thiazol-2-yl)acetamide] | D (a % inhibition of between about 0% to about 25%) | 1 to 10 µM | < 0.5 µM | < 5.00 | > 10 µM | 1 to 10 µM
O=C(Nc1nccs1)[C@@H](c1ccccc1)N1Cc2ccc(-c3ccc(CN4CCNCC4)cc3)cc2C1=O [Compound I-121, (R)-2-(1-oxo-6-(4-(piperazin-1-ylmethyl)phenyl)isoindolin-2-yl)-2-phenyl-N-(thiazol-2-yl)acetamide] | D (a % inhibition of between about 0% to about 25%) | 1 to 10 µM | < 0.5 µM | 5.00 to 6.00 | 1 to 10 µM | 1 to 10 µM
O=C(Nc1nccs1)[C@@H](c1ccccc1)N1Cc2ccc(-c3ccc4c(c3)OCCO4)cc2C1=O [Compound I-65, (R)-2-(6-(2,3-dihydrobenzo[b] [1,4]dioxin-6-yl)-1-oxoisoindolin-2-yl)-2-phenyl-N-(thiazol-2-yl)acetamide] | D (a % inhibition of between about 0% to about 25%) | > 10 µM | < 0.5 µM | < 5.00 | > 10 µM | > 10 µM
O=C(Nc1nccs1)[C@H](c1ccccc1)N1Cc2ccc(-c3ccc4[nH]ccc4c3)cc2C1=O [Compound I-112, (S)-2-(6-(1H-indol-5-yl)-1-oxoisoindolin-2-yl)-2-phenyl-N-(thiazol-2-yl)acetamide] | D (a % inhibition of between about 0% to about 25%) | 1 to 10 µM | < 0.5 µM | < 5.00 | > 10 µM | > 10 µM
O=C(Nc1nccs1)[C@@H](c1ccccc1)N1Cc2ccc(-c3ccc(N4CCNCC4)cc3F)cc2C1=O [Compound I-120, (R)-2-(6-(2-fluoro-4-(piperazin-1-yl)phenyl)-1-oxoisoindolin-2-yl)-2-phenyl-N-(thiazol-2-yl)acetamide] | D (a % inhibition of between about 0% to about 25%) | 1 to 10 µM | < 0.5 µM | 5.00 to 6.00 | 1 to 10 µM | 1 to 10 µM
CN(C)CCNC(=O)c1ccc(-c2ccc3c(c2)C(=O)N([C@@H](C(=O)Nc2nccs2)c2ccccc2)C3)cc1 [Compound I-81, (R)-N-(2-(dimethylamino)ethyl)-4-(3-oxo-2-(2-oxo-1-phenyl-2-(thiazol-2-ylamino)ethyl)isoindolin-5-yl)benzamide] | D (a % inhibition of between about 0% to about 25%) | 1 to 10 µM | < 0.5 µM | 5.00 to 6.00 | 1 to 10 µM | 1 to 10 µM
